Laboratory results published in PubChem BioAssay AID200 (DTP/NCI, 2004).
“And” between values parts separate entries of the source, which are not always exact repeats. Equal values may be shown once. Toxic doses and inconclusive results are not listed.

System: B6C3F1 mice, B16 melanoma ip, median survival T/C
Test: NCI In Vivo Anticancer Drug Screen. Data for tumor model B16 Melanoma (intraperitoneal) in B6C3F1 mice
Settings: endpoint: median survival time, higher = longer survival
Outline: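 Readout: survival or tumor size in treated mice relative to vehicle controls (T/C). Model uses transplantable tumors grown in mice.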

[1] = dose: 50.0 mg/kg/injection, schedule: Q01DX009 (ip), vehicle: Klucel (hydroxypropylcellulose) (HPC)
[2] = dose: 25.0 mg/kg/injection, schedule: Q01DX009 (ip), vehicle: saline
[3] = dose: 50.0 mg/kg/injection, schedule: Q01DX009 (ip), vehicle: saline
[4] = dose: 100.0 mg/kg/injection, schedule: Q01DX009 (ip), vehicle: saline
[5] = dose: 200.0 mg/kg/injection, schedule: Q01DX009 (ip), vehicle: saline
[6] = dose: 400.0 mg/kg/injection, schedule: Q01DX009 (ip), vehicle: saline
[7] = dose: 600.0 mg/kg/injection, schedule: Q01DX009 (ip), vehicle: saline
[8] = dose: 100.0 mg/kg/injection, schedule: Q01DX009 (ip), vehicle: saline with Tween-80
[9] = dose: 200.0 mg/kg/injection, schedule: Q01DX009 (ip), vehicle: saline with Tween-80
[10] = dose: 400.0 mg/kg/injection, schedule: Q01DX009 (ip), vehicle: saline with Tween-80
[11] = dose: 50.0 mg/kg/injection, schedule: Q01DX009 (ip), vehicle: saline with Tween-80
[12] = dose: 6.25 mg/kg/injection, schedule: Q01DX009 (ip), vehicle: Klucel (hydroxypropylcellulose) (HPC)

O=NN(CCCl)C(=O)NC1CCC(=O)NC1=O (stereo not drawn)
T/C (dose: 0.8 mg/kg/injection, schedule: Q01DX005 (ip), vehicle: saline + alcohol): 118 % of control
T/C (dose: 0.8 mg/kg/injection, schedule: Q01DX005 (iv), vehicle: saline + alcohol): 96 % of control
T/C (dose: 1.6 mg/kg/injection, schedule: Q01DX005 (ip), vehicle: saline + alcohol): 155 % of control
T/C (dose: 2.0 mg/kg/injection, schedule: Q01DX005 (ip), vehicle: saline + alcohol): 175 % of control
T/C (dose: 2.0 mg/kg/injection, schedule: Q01DX005 (iv), vehicle: saline + alcohol): 102 % of control
T/C (dose: 3.2 mg/kg/injection, schedule: Q01DX005 (ip), vehicle: saline + alcohol): 197 % of control
T/C (dose: 3.2 mg/kg/injection, schedule: Q01DX005 (iv), vehicle: saline + alcohol): 151 % of control
T/C (dose: 4.0 mg/kg/injection, schedule: Q01DX001 (ip), vehicle: saline + alcohol): 195 % of control
T/C (dose: 4.0 mg/kg/injection, schedule: Q01DX001 (iv), vehicle: saline + alcohol): 124 % of control
T/C (dose: 4.0 mg/kg/injection, schedule: Q01DX005 (ip), vehicle: saline + alcohol): 300 % of control
T/C (dose: 4.0 mg/kg/injection, schedule: Q01DX005 (iv), vehicle: saline + alcohol): 180 % of control
T/C (dose: 6.4 mg/kg/injection, schedule: Q01DX005 (ip), vehicle: saline + alcohol): 275 % of control
T/C (dose: 8.0 mg/kg/injection, schedule: Q01DX001 (ip), vehicle: saline + alcohol): 200 % of control and 291 % of control
T/C (dose: 8.0 mg/kg/injection, schedule: Q01DX001 (iv), vehicle: saline + alcohol): 162 % of control
T/C (dose: 8.0 mg/kg/injection, schedule: Q01DX005 (ip), vehicle: saline + alcohol): 105 % of control
T/C (dose: 8.0 mg/kg/injection, schedule: Q01DX005 (iv), vehicle: saline + alcohol): 150 % of control
T/C (dose: 8.0 mg/kg/injection, schedule: Q01DX005 (oral), vehicle: saline + alcohol): 210 % of control
T/C (dose: 16.0 mg/kg/injection, schedule: Q01DX001 (ip), vehicle: saline + alcohol): 255 % of control and 317 % of control
T/C (dose: 16.0 mg/kg/injection, schedule: Q01DX001 (iv), vehicle: saline + alcohol): 194 % of control and 216 % of control
T/C (dose: 16.0 mg/kg/injection, schedule: Q01DX001 (oral), vehicle: saline + alcohol): 183 % of control
T/C (dose: 32.0 mg/kg/injection, schedule: Q01DX001 (oral), vehicle: saline + alcohol): 89 % of control

C=C(c1ccc(OC)c(OC)c1)c1nccc2cc(OC)c(OC)cc12
T/C [1]: 103 % of control
T/C (dose: 100.0 mg/kg/injection, schedule: Q01DX009 (ip), vehicle: Klucel (hydroxypropylcellulose) (HPC)): 98 % of control
T/C (dose: 200.0 mg/kg/injection, schedule: Q01DX009 (ip), vehicle: Klucel (hydroxypropylcellulose) (HPC)): 87 % of control
T/C (dose: 400.0 mg/kg/injection, schedule: Q01DX009 (ip), vehicle: Klucel (hydroxypropylcellulose) (HPC)): 97 % of control
T/C (dose: 800.0 mg/kg/injection, schedule: Q01DX009 (ip), vehicle: Klucel (hydroxypropylcellulose) (HPC)): 90 % of control

C/C=C(\C)C(=O)N[C@@H](c1ccccc1)[C@@H](O)C(=O)OC1C[C@@]2(O)[C@@H](OC(=O)c3ccccc3)[C@@H]3[C@]4(OC(C)=O)CO[C@@H]4C[C@H](O)[C@@]3(C)C(=O)[C@H](OC(C)=O)C(=C1C)C2(C)C (stereo partly drawn)
T/C (dose: 0.5 mg/kg/injection, schedule: Q01DX009 (ip), vehicle: saline + Tween-80 + alcohol): 113 % of control
T/C (dose: 1.0 mg/kg/injection, schedule: Q01DX009 (ip), vehicle: saline + Tween-80 + alcohol): 106 % of control
T/C (dose: 4.0 mg/kg/injection, schedule: Q01DX009 (ip), vehicle: saline + Tween-80 + alcohol): 172 % of control

Cc1ccccc1CN1C2=NCCN2C(=O)C2=C1CCN(S(=O)(=O)c1ccc(Cl)c(S(N)(=O)=O)c1)C2
T/C (dose: 12.5 mg/kg/injection, schedule: Q01DX009 (ip), vehicle: saline): 101 % of control
T/C [2]: 101 % of control
T/C [3]: 95 % of control
T/C [4]: 90 % of control
T/C [5]: 92 % of control
T/C [6]: 90 % of control

CC(=O)Nc1c2sscc-2n(C)c1=O
T/C (dose: 0.19 mg/kg/injection, schedule: Q01DX009 (ip), vehicle: saline): 105 % of control
T/C (dose: 0.39 mg/kg/injection, schedule: Q01DX009 (ip), vehicle: saline): 93 % of control
T/C (dose: 0.78 mg/kg/injection, schedule: Q01DX009 (ip), vehicle: saline): 94 % of control

NCCc1ccc(O)c(O)c1
T/C [3]: 96 % of control
T/C [4]: 106 % of control [middle of 4 runs]
T/C [5]: 109 % of control [middle of 4 runs]
T/C [6]: 115 % of control [middle of 4 runs]
T/C (dose: 500.0 mg/kg/injection, schedule: Q01DX009 (ip), vehicle: saline): 119 % of control
T/C [7]: 114 % of control and 112 % of control and 118 % of control
T/C (dose: 800.0 mg/kg/injection, schedule: Q01DX009 (ip), vehicle: saline): 121 % of control

N#CCCN(C(=S)Nc1cccc(C(F)(F)F)c1)C1CCCCC1
T/C (dose: 12.5 mg/kg/injection, schedule: Q01DX009 (ip), vehicle: suspension in saline): 102 % of control
T/C (dose: 25.0 mg/kg/injection, schedule: Q01DX009 (ip), vehicle: suspension in saline): 100 % of control
T/C (dose: 50.0 mg/kg/injection, schedule: Q01DX009 (ip), vehicle: suspension in saline): 101 % of control
T/C [8]: 113 % of control
T/C (dose: 100.0 mg/kg/injection, schedule: Q01DX009 (ip), vehicle: suspension in saline): 107 % of control
T/C [9]: 94 % of control
T/C (dose: 200.0 mg/kg/injection, schedule: Q01DX009 (ip), vehicle: suspension in saline): 113 % of control
T/C [10]: 89 % of control
T/C (dose: 400.0 mg/kg/injection, schedule: Q01DX009 (ip), vehicle: suspension in saline): 103 % of control

c1csc(C[N+]23CN4CN(CN(C4)C2)C3)c1
T/C (dose: 12.0 mg/kg/injection, schedule: Q01DX009 (ip), vehicle: saline): 100 % of control
T/C [2]: 98 % of control
T/C [3]: 98 % of control
T/C [4]: 104 % of control
T/C [5]: 106 % of control

O=CCC(O)C(O)C(O)CO (stereo not drawn)
T/C (dose: 300.0 mg/kg/injection, schedule: Q01DX009 (ip), vehicle: saline): 112 % of control
T/C [7]: 103 % of control
T/C (dose: 1200.0 mg/kg/injection, schedule: Q01DX009 (ip), vehicle: saline): 104 % of control
T/C (dose: 1800.0 mg/kg/injection, schedule: Q01DX009 (ip), vehicle: saline): 108 % of control
T/C (dose: 2400.0 mg/kg/injection, schedule: Q01DX009 (ip), vehicle: saline): 101 % of control

O=C(CCl)N1c2ccccc2Oc2cc3ccccc3cc21
T/C [11]: 111 % of control
T/C [8]: 108 % of control
T/C [9]: 97 % of control
T/C [5]: 122 % of control and 95 % of control
T/C [10]: 92 % of control
T/C [6]: 97 % of control and 100 % of control

C=Cc1cc(OC)c2c(c1)c(=O)oc1c2cc(OC)c2c(O)ccc(C3OC(C)C(O)C(C)(O)C3O)c21 (stereo not drawn)
T/C (dose: 2.5 mg/kg/injection, schedule: Q01DX009 (ip), vehicle: DMSO): 120 % of control
T/C (dose: 5.0 mg/kg/injection, schedule: Q01DX009 (ip), vehicle: DMSO): 124 % of control and 103 % of control
T/C (dose: 20.0 mg/kg/injection, schedule: Q01DX009 (ip), vehicle: DMSO): 158 % of control
T/C (dose: 40.0 mg/kg/injection, schedule: Q01DX009 (ip), vehicle: DMSO): 169 % of control and 196 % of control
T/C (dose: 80.0 mg/kg/injection, schedule: Q01DX009 (ip), vehicle: DMSO): 207 % of control

NNC(=S)N/N=C/c1ccc([N+](=O)[O-])s1
T/C (dose: 0.78 mg/kg/injection, schedule: Q01DX009 (ip), vehicle: Klucel (hydroxypropylcellulose) (HPC)): 105 % of control
T/C (dose: 1.56 mg/kg/injection, schedule: Q01DX009 (ip), vehicle: Klucel (hydroxypropylcellulose) (HPC)): 99 % of control
T/C (dose: 3.12 mg/kg/injection, schedule: Q01DX009 (ip), vehicle: Klucel (hydroxypropylcellulose) (HPC)): 104 % of control
T/C [12]: 104 % of control

Brc1ccc(C[N+]23CN4CN(CN(C4)C2)C3)cc1
T/C (dose: 12.5 mg/kg/injection, schedule: Q01DX009 (ip), vehicle: saline with Tween-80): 100 % of control
T/C (dose: 25.0 mg/kg/injection, schedule: Q01DX009 (ip), vehicle: saline with Tween-80): 98 % of control
T/C [11]: 101 % of control
T/C [8]: 108 % of control
T/C [9]: 112 % of control

COC1=C(NC(C)=O)C(=O)c2nc(-c3nc(C(=O)O)c(C)c(-c4ccc(OC)c(OC)c4O)c3N)ccc2C1=O
T/C [12]: 103 % of control
T/C (dose: 12.5 mg/kg/injection, schedule: Q01DX009 (ip), vehicle: Klucel (hydroxypropylcellulose) (HPC)): 95 % of control
T/C (dose: 25.0 mg/kg/injection, schedule: Q01DX009 (ip), vehicle: Klucel (hydroxypropylcellulose) (HPC)): 86 % of control
T/C [1]: 97 % of control
